Test results: patent publication US10017535B2, “Amphiphilic compounds with neuroprotective properties” (USTAV ORGANICKE CHEMIE A BIOCHEMIE AV CR, v.v.i., priority 2014, dated 2018)
Like-named read-outs stand apart in the source and are kept apart here.

Target: T1, NR1-1a/NR2B NMDA receptor (Rattus norvegicus, UniProt P35439+Q00960)
T1 construct: expressed in transfected cells; host or cells: HEK293 cells (ATCC CRL1573)
Assay: Patch-clamp inhibition of glutamate-evoked currents at recombinant NMDA receptors in transfected HEK293 cells
Type: cell-based
Description: Transfected cells were identified by means of fluorescent green protein (GFP) fluorescence. Its genus was transfected together with the both receptor subunit genes.
Steroid-containing solutions were prepared from fresh solution (20 mmol·l^−1, of steroid dissolved in dimethyl sulfoxide, DMSO), which was added to the extracellular solution containing 1 mmol·l^−1 glutamic acid and 10 μmol·l^−1 of glycine. Identical concentrations of DMSO were added to all other extracellular solutions.
Current responses produced by extracellular application of glutamic acid solution (1 mmol·l^−1) were measured from the whole cell by patch-clamp technique, which is used for the study of transport of charged particles through model and also natural biological membranes. The currents were measured at membrane potential maintained at −60 mV and +60 mV.
Same amounts (0.3 μg) of cDNA coding NR1, NR2 and GFP (green fluorescent protein) (pQBI 25, Takara, Japan) were mixed with 0.9 μl of Matra-A Reagent (IBA, Göttingen, Germany) and added to confluent HEK293 cells cultivated in v 24-pit cultivating plate. After trypsination, the cells were re-suspended in Opti-MEM® I containing 1% fetal bovine serum. Subsequently, 20 mmol·l^−1 MgCl2, 1 mmol l^−1 D,L-2-amino-5-phosphonopentanoic acid, 3 mmol·l^−1 kynurenic acid was added to the mixture and cells were inoculated on the polylysine-coated glass plates having 25 mm in diameter. The following genes coding NMDA receptor subunits were used for transfection: NR1-1 a (GenBank accession No. U08261) and NR2B (GenBank accession No. M91562).
HEK293 Cultured cells were used for electrophysiological investigations with a latency of 16-40 h after transfection. Whole-cell currents were measured by patch-clamp amplifier (Axopatch 1D; Axon Instruments, Inc. Foster City, USA) after capacitance and serial resistance (<10 MΩ) compensation to 80-90%. Agonist-induced responses were filtered to 1 kHz (8-pole Bessel filter; Frequency Devices, Haverhill, USA), digitized with sampling frequency of 5 kHz and analyzed by pClamp version 9 software (Axon Instruments, USA). […] Extracellular solution (ECS) contained 160 mmol·l^−1 sodium chloride, 2.5 mmol·l^−1 potassium chloride, 10 mmol·l^−1 HEPES, 10 mmol·l^−1 glucose, 0.2 mmol·l^−1 EDTA a 0.7 mmol·l^−1 calcium chloride (pH adjusted to 7.3 by sodium hydroxide solution). Glycine was added to both testing and control solution. Moreover, bicuculline (10 μmol·l^−1) and tetrodotoxin (0.5 μmol·l^−1) was added to hippocampal cultures. Steroid-containing solutions were prepared from fresh solution (20 mmol·l^−1) of steroid dissolved in dimethyl sulfoxide (DMSO). Same concentrations of DMSO were used in all extracellular solutions. Control and experimental solutions were applied via microprocessor-controlled perfusion system with approx. rate of solution exchange in areas adjacent to cells reaching ˜10 ms.
Current responses produced by 100 μmol·l^−1 of NMDA (in the case of hipocampal neurones), or by 1 mmol·l^−1 of glutamate (on recombinant NMDA receptors) were measured at membrane potential maintained at −60 mV. […] Relative effect of steroid-induced inhibition was used for calculating IC50.

[1] = calculated from relative steroid-induced inhibition, Hill's coefficient 1.2, read-out: IC50
[2] = HEK293, steroid concentration 50 μmol·l^−1, 1 mmol·l^−1 glutamate, −60 mV, read-out: Mean % change ± SD
[3] = HEK293, read-out: Mean % change ± SD

T1 sequence (Q00960 27-1482, other chains not shown): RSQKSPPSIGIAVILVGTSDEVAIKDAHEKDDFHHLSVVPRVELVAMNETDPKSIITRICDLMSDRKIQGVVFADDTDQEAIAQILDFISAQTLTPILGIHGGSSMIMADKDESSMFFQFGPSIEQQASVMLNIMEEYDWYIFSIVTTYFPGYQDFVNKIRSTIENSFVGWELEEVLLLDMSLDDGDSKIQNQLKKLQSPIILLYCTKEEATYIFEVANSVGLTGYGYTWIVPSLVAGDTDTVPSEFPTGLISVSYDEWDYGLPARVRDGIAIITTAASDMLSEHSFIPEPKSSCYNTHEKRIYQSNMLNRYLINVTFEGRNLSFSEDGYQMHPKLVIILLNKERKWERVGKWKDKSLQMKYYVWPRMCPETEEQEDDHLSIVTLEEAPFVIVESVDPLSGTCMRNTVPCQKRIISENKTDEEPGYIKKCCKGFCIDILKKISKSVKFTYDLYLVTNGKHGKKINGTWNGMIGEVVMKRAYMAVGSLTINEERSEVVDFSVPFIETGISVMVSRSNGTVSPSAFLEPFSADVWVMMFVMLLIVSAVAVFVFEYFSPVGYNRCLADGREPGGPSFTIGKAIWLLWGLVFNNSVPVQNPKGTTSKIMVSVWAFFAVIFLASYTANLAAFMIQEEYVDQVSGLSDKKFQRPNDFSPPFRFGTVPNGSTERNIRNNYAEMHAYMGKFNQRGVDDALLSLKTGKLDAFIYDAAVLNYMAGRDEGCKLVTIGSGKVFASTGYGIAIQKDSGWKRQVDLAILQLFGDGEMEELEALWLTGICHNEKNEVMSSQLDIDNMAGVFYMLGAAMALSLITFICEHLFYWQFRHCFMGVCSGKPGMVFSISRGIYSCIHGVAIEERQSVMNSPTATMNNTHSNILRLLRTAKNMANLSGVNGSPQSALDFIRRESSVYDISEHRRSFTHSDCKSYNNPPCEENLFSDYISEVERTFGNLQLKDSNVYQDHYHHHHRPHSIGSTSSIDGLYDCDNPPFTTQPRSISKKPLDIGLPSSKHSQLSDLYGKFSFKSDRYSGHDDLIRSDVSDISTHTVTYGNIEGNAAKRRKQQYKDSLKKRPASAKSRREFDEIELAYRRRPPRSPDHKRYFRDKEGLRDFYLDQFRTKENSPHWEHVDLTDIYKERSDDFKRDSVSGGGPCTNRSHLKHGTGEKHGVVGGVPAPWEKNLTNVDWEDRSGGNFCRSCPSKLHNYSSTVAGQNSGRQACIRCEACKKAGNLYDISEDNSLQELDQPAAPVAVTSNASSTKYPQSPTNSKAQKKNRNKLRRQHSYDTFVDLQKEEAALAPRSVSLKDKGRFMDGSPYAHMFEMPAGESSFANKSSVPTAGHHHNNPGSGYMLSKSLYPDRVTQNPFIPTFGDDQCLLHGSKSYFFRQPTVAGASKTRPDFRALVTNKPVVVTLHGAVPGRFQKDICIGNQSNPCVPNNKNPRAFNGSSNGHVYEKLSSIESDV

C[C@]12CC[C@@H](OS(=O)(=O)O)C[C@H]1CC[C@H]1CCCC[C@@H]12.c1ccncc1 [Compound 8, Pyridinium (2R,4aS,4bS,8aR,10aR)-4a-methyltetradecahydrophenanthren-2-yl 2-Sulfate]
IC50 [1]: 28.3 µM | Mean % change ± SD (steroid concentration 100 μmol·l^−1, 1 mmol·l^−1 glutamate, −60 mV): 78.3 ± 5.5%

COC[C@@]1(C)CC[C@H]2[C@@H](CC[C@@H]3C[C@H](OS(=O)(=O)O)CC[C@@]32C)[C@@H]1C [Compound 18, Pyridinium (2R,4aS,4bS,7S,8S,8aS,10aR)-7-(methoxymethyl)-4a,7,8-trimethyltetra-decahydrophenanthren-2-yl 2-sulfate]
inhibition at 50 µM [2]: 60.5 ± 4.6% | IC50 [1]: 33 µM

COC[C@@]1(C)CC[C@H]2[C@@H](CC[C@@H]3C[C@H](OC(=O)CCC(=O)O)CC[C@@]32C)C1C (stereo partly drawn) [Compound 19, 4-(((2R,4aS,4bS,7S,8aS,10aR)-7-(methoxymethyl)-4a,7,8-trimethyltetradecahydrophenanthren-2-yl)oxy)-4-oxobutanoic acid]
inhibition at 50 µM [2]: 47.4 ± 4.3% | IC50 [1]: 55 µM

COC(=O)C1(C)CCC2C(CCC3CC(OS(=O)(=O)O)CCC32C)C1C [Compound 22, Pyridinium (2R,4aS,7S,8S,10aR)-7-(methoxycarbonyl)-4a,7,8-trimethyltetra-decahydrophenanthren-2-yl 2-sulfate]
inhibition at 100 µM (HEK293, steroid concentration 100 μmol·l^−1, 1 mmol·l^−1 glutamate, −60 mV, read-out: Mean % change ± SD): 40.9 ± 6.1% | IC50 [1]: 74.6 µM

C[C@@H]1CC[C@H]2[C@@H](CC[C@@H]3C[C@H](OS(=O)(=O)O)CC[C@@]32C)C1 [Compound 35, Pyridinium (2R,4aS,4bS,7R,8aS,10aR)-4a,7-dimethyltetradecahydrophenanthren-2-yl 2-sulfate]
inhibition at 50 µM [2]: 85 ± 1.2% | IC50 [1]: 12 µM

COC(=O)[C@@]1(C)CC[C@H]2[C@@H](CC[C@@H]3C[C@H](OS(=O)(=O)O)CC[C@@]32C)C1 [Compound 40, Methyl (2S,4aS,4bS,7R,8aR,10aS)-2,4b-dimethyl-7-(sulfooxy)tetradecahydrophenanthren-2-carboxylate]
inhibition at 50 µM [2]: 14.4 ± 1.8% | IC50 [1]: 224 µM

C[C@@]12CCC[C@H]1[C@@H]1CC[C@@H]3C[C@H](OS(=O)(=O)O)CC[C@]3(C)[C@H]1CC2.c1ccncc1 [Compound 49, Pyridinium (3R,5R,8S,9S,10S,13S,14S)-10,13-dimethylhexadecahydro-1H-cyclopenta[a]phenanthren-3-yl 3-sulfate]
IC50 [1]: 2.1 µM | Mean % change ± SD (steroid concentration 2 μmol·l^−1, 1 mmol·l^−1 glutamate, −60 mV): 49.2 ± 6.6%

C[C@@]12CCC[C@H]1[C@@H]1CC[C@@H]3C[C@H](OC(=O)C(=O)O)CC[C@]3(C)[C@H]1CC2 [Compound 50, 2-(((3R,5R,8S,9S,10S,13S,14S)-10,13-Dimethylhexadecahydro-1H-cyclopenta[a]phenanthren-3-yl)oxy)-2-oxoethanoic acid]
inhibition at 10 µM [3]: 64 ± 7% | IC50 [1]: 6.3 µM

C[C@@]12CCC[C@H]1[C@@H]1CC[C@@H]3C[C@H](OC(=O)CC(=O)O)CC[C@]3(C)[C@H]1CC2 [Compound 51]
inhibition at 10 µM [3]: 42 ± 14% | IC50 [1]: 15.5 µM

C[C@@]12CCC[C@H]1[C@@H]1CC[C@@H]3C[C@H](OC(=O)CCC[N+](C)(C)C)CC[C@]3(C)[C@H]1CC2 [Compound 62, 4-(((3R,5R,8S,9S,10S,13S,14S)-10,13-Dimethylhexadecahydro-1H-cyclopenta[a]-phenanthren-3-yl)oxy)-N,N,N-trimethyl-4-oxobutan-1-ammonium chloride]
inhibition at 1 µM [3]: 34 ± 5% | IC50 [1]: 1.7 µM

C[C@]12CC[C@@H](OC(=O)CCC(=O)O)C[C@H]1CC[C@@H]1[C@@H]2CC[C@]2(C)C=CC[C@@H]12 [Compound 64, 4-(((3R,5R,8R,9S,10S,13R,14S)-10,13-Dimethyl-2,3,4,5,6,7,8,9,10,11,12,13,14,15-tetra-decahydro-1H-cyclopenta[a]phenanthren-3-yl)oxy)-4-oxobutanoic acid]
inhibition at 10 µM [3]: 45.9 ± 11.7% | IC50 [1]: 12.9 µM

C[C@]12CC[C@@H](OC(=O)CC(=O)O)C[C@H]1CC[C@@H]1[C@@H]2CC[C@]2(C)C=CC[C@@H]12 [Compound 65, 3-(((3R,5R,8R,9S,10S,13R,14S)-10,13-Dimethyl-2,3,4,5,6,7,8,9,10,11,12,13,14,15-tetradecahydro-1H-cyclopenta[a]phenanthren-3-yl)oxy)-3-oxopropanoic acid]
inhibition at 10 µM [3]: 44 ± 11% | IC50 [1]: 13.5 µM

C=C1CC[C@H]2[C@@H]3CC[C@@H]4C[C@H](OC(=O)C[N+](C)(C)C)CC[C@]4(C)[C@H]3CC[C@]12C [Compound 76, 2-(((3R,5R,8R,9S,10S,13S,14S)-10,13-Dimethyl-17-methylenehexadecahydro-1H-cyclopenta[a]phenanthren-3-yl)oxy)-N,N,N-trimethyl-2-oxoethan-1-ammonium chloride]
inhibition at 50 µM [3]: 50 ± 10% | IC50 [1]: 51.7 µM

C/C=C1/CC[C@H]2[C@@H]3CC[C@@H]4C[C@H](OC(=O)CCCC(=O)O)CC[C@]4(C)[C@H]3CC[C@]12C [Compound 85, 5-(((3R,5R,8R,9S,10S,13S,14S,Z)-17-Ethylidene-10,13-dimethylhexadecahydro-1H-cyclopenta[a]phenanthren-3-yl)oxy)-5-oxopentanoic acid]
inhibition at 50 µM [3]: 59.4 ± 7.8% | IC50 [1]: 38.4 µM

C[C@]12CC[C@@H](OS(=O)(=O)O)C[C@H]1CC[C@@H]1[C@@H]2CC[C@]2(C)[C@@H](I)CC[C@@H]12 [Compound 93, Pyridinium (3R,5R,8R,9S,10S,13S,14S,17S)-17-iodo-10,13-dimethylhexadecahydro-1H-cyclopenta[a]phenanthren-3-yl 3-sulfate]
inhibition at 5 µM [3]: 90.5 ± 2.2% | IC50 [1]: 0.8 µM

C[C@]12CC[C@@H](OS(=O)(=O)O)C[C@H]1CC[C@@H]1[C@@H]2CC[C@@]2(C)[C@H]1CCC2(F)F [Compound 95, Pyridinium (3R,5R,8R,9S,10S,13S,14S)-17,17-difluoro-10,13-dimethylhexadecahydro-1H-cyclopenta[a]phenanthren-3-yl 3-sulfate]
IC50: 7 µM | inhibition at 10 µM [3]: 61.2 ± 5.1%

C[C@]12CC[C@@H](OS(=O)(=O)O)C[C@H]1CC[C@@H]1[C@@H]2CC[C@@]2(C)[C@H]1CC[C@@]21CO1 [Compound 97, Pyridinium (3R,5R,8R,9S,10S,13S,14S,17S)-10,13-dimethylhexadecahydrospiro-[cyclopenta[a]phenanthren-17,2′-oxiran]-3-yl 3-sulfate]
inhibition at 100 µM [3]: 78 ± 8.9% | IC50 [1]: 45 µM

CC12CCCCC1C1CCC3CC(OS(=O)(=O)O)CCC3(C)C1CC2 [Compound 101, Pyridinium (2R,4aS,4bS,6aS,10bS,6aS,12aR)-4a,6a-dimethyloctadecahydrochrysen-2-yl 2-sulfate]
inhibition at 5 µM (HEK293, steroid concentration 5 μmol·l^−1, 1 mmol·l^−1 glutamate, −60 mV, read-out: Mean % change ± SD): 69.1 ± 5.9% | IC50 [1]: 2.3 µM

C=C1C[C@H]2[C@@H]3CC[C@@H]4C[C@H](OS(=O)(=O)O)CC[C@]4(C)[C@H]3CC[C@]2(C)C1 [Compound 114, Pyridinium (3R,5R,8S,9S,10S,13R,14S)-10,13-dimethyl-16-methylenhexadekhydro-1H-cyclopenta[a]phenanthren-3-yl 3-sulfate]
inhibition at 3 µM [3]: 59.1 ± 3.8% | IC50 [1]: 2.1 µM

C[C@@]12CCC[C@H]1[C@H]1CC[C@H]3C[C@H](OS(=O)(=O)O)CC[C@]3(C)[C@@H]1CC2.c1ccncc1 [Compound 127, Pyridinium (3R,5S,8R,9R,10S,13S,14S)-10,13-dimethylhexadecahydro-1H-cycopenta[a]phenanthren-3-yl 3-sulfate]
IC50 [1]: 1.7 µM | Mean % change ± SD (steroid concentration 3 μmol·l^−1, 1 mmol·l^−1 glutamate, −60 mV): 34.0 ± 5.0%
